The text below walks through data of US20210393807A1, “PHOTOACOUSTIC VOLTAGE-SENSITIVE DYES FOR IN VIVO IMAGING” (The Johns Hopkins University, priority 2016, published 2021).

“And” between values parts separate entries of the source, which are not always exact repeats. Identical values can stand only once.

For experiment [1], the system named is rat brain. The experiment in a line: Microdialysis of extracellular glutamate during NMDA infusion. The class given is in vivo, Sprague Dawley rats. The note with it: NMDA infusion phase, 0.3-mM NMDA via microdialysis probe; baseline phase 0.557 μM. An excerpt:
(§1) 3.1.1 Animal preparation. For the in vivo experiments, 8-9-week-old male Sprague Dawley rats weighing 275-390 g were used (Charles Rivers Laboratory, Inc., MA, United States). The use of animals for the proposed experimental protocol was approved by the Institutional Research Board Committee of Johns Hopkins Medical Institute (RA16M225). The hair was shaved from the scalp of each rat for improved optical/acoustic coupling for transcranial PA recording. The head of the anesthetized rat was fixed to a stable position using a standard stereotaxic device. This fixation procedure was required to prevent any unpredictable movement during PA recording of neural activities.
3.1.2 Microdialysis setup. The microdialysis probe consists of a shaft with a semipermeable hollow membrane tip, which is connected to inlet and outlet tubing. The extracellular fluid samples were continuously acquired before and after the infusion of 0.3-mM NMDA through the inlet of the microdialysis probe (FIG. 22A). Each acquisition of extracellular fluid sample took 20 min with 2 μL/min flow rate. From the samples, the change of glutamate concentration was measured.
3.1.3 In vivo experimental protocol. […] PA data acquisition was continuously performed for 40 min to be correlated with the glutamate concentration change measured by microdialysis with 20-min intervals. […]

In experiment [2] the test system is rat brain. The experiment in a line: PA recording of neural activity index during NMDA infusion. Format: in vivo, Sprague Dawley rats.
Excerpt: as §1
3.1.3 In vivo experimental protocol. The in vivo protocol was designed to have two different phases: baseline and NMDA infusion (FIG. 22B). PA data acquisition was continuously performed for 40 min to be correlated with the glutamate concentration change measured by microdialysis with 20-min intervals. The baseline phase was designed to confirm its stable neural activity before the NMDA infusion. […]

Turning to `CN[C@H](CC(=O)O)C(=O)O` [NMDA], in the experiment on rat brain [1], the extracellular glutamate concentration is 0.000643 mM and 0.000648 mM. In addition, the “increase of neural activity index estimated by PA recording” value in the experiment on rat brain [2] (30 min of NMDA infusion, after VSD and Lexiscan administration) is listed as “up to 3.27 times”. The “time at which the increase of index is saturated” value in the experiment with rat brain [2] (from the start of NMDA infusion) lay within 10 to 15 min.
